Test results taken from patent publication US20250084067A1, “PYRAZOLE-SUBSTITUTED CYCLOPENTANOL ESTER DERIVATIVE AND USE THEREOF” (CHIA TAI TIANQING PHARMACEUTICAL GROUP CO., LTD., priority 2022, published 2025).

Experiments:
CDK2/CycA2 kinase = CDK2/CycA2 kinase (Homo sapiens (Human), UniProt P24941); experiment: Determination of inhibitory activity against CDK2/CycA2 kinase; format: biochemical; conditions: 10 μM ATP
Method: The wells were set in duplicate, and a control well was set. […] The resulting mixture was left to react at room temperature for 2 h, and then 5 µL of EDTA was added to terminate the reaction, followed by addition of 5 μL of a detection antibody (manufacturer: PerkinElmer, concentration: 8 nM). The mixture was incubated at room temperature for 1 h.

CDK2 CycE1 kinase = CDK2 CycE1 kinase (Homo sapiens (Human), UniProt P24941); experiment: Determination of inhibitory activity against CDK2 CycE1 kinase; format: biochemical; conditions: 10 μM ATP
Method: CDK2 CycE1 kinase solution (concentration: 0.015 ng/μL) was added to assay wells at 6 μL/well, and different compounds dissolved in DMSO were added to the assay wells separately using a nanoliter pipettor, such that the final concentrations of the compounds were 300 nM to 0.07 nM. The wells were set in duplicate, and a control well was set. After incubation of the above system for 30 min, ATP (concentration: 50 μM or 5000 μM) was mixed with ULight-Myelin Basic Protein Peptide substrate (manufacturer: PerkinElmer, concentration: […]) at a ratio of 1:1, and the mixture was added to the assay wells at 4 μL/well. The resulting mixture was left to react at room temperature for 2 h, and then 5 μL of EDTA was added to terminate the reaction, followed by addition of 5 μL of a detection antibody (manufacturer: PerkinElmer, concentration: 8 nM). The mixture was incubated at room temperature for 1 h.

Structure (SMILES)	IC50 (CDK2/CycA2 kinase) [nM]	IC50 (CDK2 CycE1 kinase) [nM]
CC(C)NC(=O)O[C@@H]1CC[C@H](c2cc(Nc3ccc(NS(C)(=O)=O)cn3)n[nH]2)C1 [Example 1]	< 10	< 10
CC(C)NC(=O)O[C@@H]1CC[C@H](c2cc(Nc3ccc(N(C)S(C)(=O)=O)cn3)n[nH]2)C1 [Example 2]	10 to 50	10 to 50
CC(C)NC(=O)O[C@@H]1CC[C@H](c2cc(Nc3ccc(NS(C)(=O)=O)cc3F)n[nH]2)C1 [Example 3]	< 10	< 10
CC(=O)N(C)c1ccc(Nc2cc([C@H]3CC[C@@H](OC(=O)NC(C)C)C3)[nH]n2)nc1 [Example 4]	10 to 50	10 to 50
CC(C)NC(=O)O[C@@H]1CC[C@H](c2cc(Nc3ccc(NC=O)cn3)n[nH]2)C1 [Example 5]	< 10	< 10
CC(=O)Nc1ccc(Nc2cc([C@H]3CC[C@@H](OC(=O)NC(C)C)C3)[nH]n2)nc1 [Example 6]	< 10	< 10
CC(C)NC(=O)O[C@@H]1CC[C@H](c2cc(Nc3ccc(NS(C)(=O)=O)cc3)n[nH]2)C1 [Example 7]	< 10	< 10
CC(C)NC(=O)O[C@@H]1CC[C@H](c2cc(Nc3ccc(NS(=O)(=O)C4CC4)cn3)n[nH]2)C1 [Example 8]	< 10	< 10
COc1ccc(Nc2cc([C@H]3CC[C@@H](OC(=O)NC(C)C)C3)[nH]n2)nc1 [Example 9]	10 to 50	< 10
CC(C)NC(=O)O[C@@H]1CC[C@H](c2cc(Nc3ccc(CN(C)C)cc3F)n[nH]2)C1 [Example 10]	10 to 50	< 10
CC(C)NC(=O)O[C@@H]1CC[C@H](c2cc(Nc3ccc(NS(C)(=O)=O)c(C(F)(F)F)n3)n[nH]2)C1 [Example 11]	< 10	< 10
COCCN(C=O)c1ccc(Nc2cc(C3CCC(OC(=O)NC(C)C)C3)[nH]n2)nc1 (stereo not drawn) [Example 12]	10 to 50	10 to 50
CC(C)NC(=O)O[C@@H]1CC[C@H](c2cc(Nc3ccc(N4CCCC4=O)cn3)n[nH]2)C1 [Example 14]	< 10	< 10
CC(C)NC(=O)O[C@@H]1CC[C@H](c2cc(Nc3ccc(NS(C)(=O)=O)nc3)n[nH]2)C1 [Example 15]	< 10	< 10
CNS(=O)(=O)c1ccc(Nc2cc(C3CCC(OC(=O)NC(C)C)C3)[nH]n2)c(F)c1 (stereo not drawn) [Example 16]	< 10	< 10
COCc1ccc(Nc2cc(C3CCC(OC(=O)NC(C)C)C3)[nH]n2)nc1 (stereo not drawn) [Example 18]	10 to 50	10 to 50
CC(C)NC(=O)OC1CCC(c2cc(Nc3ncc(NS(C)(=O)=O)cn3)n[nH]2)C1 (stereo not drawn) [Example 19]	10 to 50	< 10
COCCNc1ccc(Nc2cc(C3CCC(OC(=O)NC(C)C)C3)[nH]n2)nc1 (stereo not drawn) [Example 20]	10 to 50	10 to 50
CC(C)NC(=O)OC1CCC(c2cc(Nc3ccc4c(n3)OCC4)n[nH]2)C1 (stereo not drawn) [Example 21]	< 10	< 10
CC(C)NC(=O)OC1CCC(c2cc(NC3CCN(S(C)(=O)=O)CC3)n[nH]2)C1 (stereo not drawn) [Example 22]	10 to 50	10 to 50
CC(C)NC(=O)O[C@@H]1CC[C@H](c2cc(Nc3ccc(NS(C)(=O)=O)c(F)c3)n[nH]2)C1 [Example 23]	< 10	< 10
CC(C)NC(=O)O[C@@H]1CC[C@H](c2cc(Nc3ccc(NS(C)(=O)=O)c(F)n3)n[nH]2)C1 [Example 24]	< 10	< 10
CC(C)NC(=O)O[C@@H]1CC[C@H](c2cc(Nc3ccc(S(N)(=O)=O)cc3F)n[nH]2)C1 [Example 25]	< 10	< 10
CC(C)NC(=O)O[C@@H]1CC[C@H](c2cc(Nc3ccc(NS(C)(=O)=O)c(C(F)(F)F)c3)n[nH]2)C1 [Example 27]	< 10	< 10
CC(C)NC(=O)O[C@@H]1CC[C@H](c2cc(Nc3ccc(N4CCCS4(=O)=O)cn3)n[nH]2)C1 [Example 28]	< 10	< 10
CC(C)NC(=O)O[C@@H]1CC[C@H](c2cc(Nc3ccc(NS(C)(=O)=O)c(OC(F)(F)F)n3)n[nH]2)C1 [Example 29]	< 10	< 10
CC(C)NC(=O)O[C@@H]1CC[C@H](c2cc(Nc3ccc(NS(C)(=O)=O)c(Cl)n3)n[nH]2)C1 [Example 30]	< 10	< 10
